Assay results from patent US20120065187A1 (ALCON RESEARCH, LTD, priority 2008, published 2012).

Tests used:
[1] = tested on: Hartley VAF outbred guinea pigs; experiment: Allergic conjunctivitis in passively sensitized guinea pigs (conjunctival EPO activity); format: in vivo; design: key: +: a ≦0.1% qd dose was statistically equivalent to dexamethasone with respect to reduction of EPO activity; −: the compound was statistically inferior to dexamethasone and not different than vehicle; details: ≦0.1% qd topical, 1 hour prior to ovalbumin challenge; reduction of conjunctival EPO activity vs dexamethasone
Experimental: (§1) Male Hartley VAF outbred guinea pigs were passively sensitized to ovalbumin by a single OD subconjunctival injection of undiluted guinea pig anti-ovalbumin antiserum 24 hours before OD topical challenge with 500 μg ovalbumin in saline. Control animals were injected with saline only and challenged with ovalbumin. To determine acute phase drug efficacy, 30 min after challenge animals were clinically scored by a masked observer for severity of signs of conjunctivitis based on a standard scale. Test compounds were administered topically 1 hour prior to challenge (QD protocol), or 1 hour prior to challenge and again 8 hours after challenge (BID protocol). Twenty-four hours after challenge, animals were euthanized and conjunctivae were harvested for determination of tissue eosinophil peroxidase (EPO) concentration as a marker of allergic inflammation. Homogenates of freshly collected tissues were prepared by shaking the tissues in 2 mL round-bottom tubes containing 0.5 mL of homogenization buffer (50 mM Tris HCl, pH 8.0, 6 mM KBr) and one 5-mm stainless steel bead on a Qiagen TissueLyser at 30 Hz for 5 min. Homogenates were frozen and thawed once, then centrifuged at 10,000 rpm for 5 min. EPO activity in supernatants was measured by reacting diluted homogenates with a solution of 6 mM o-phenylenediamine substrate and 8.8 mM H2O2 in homogenization buffer for 3 min. The reaction was stopped with 4M H2SO4 and absorbances were measured at […] on a spectrophotometric plate reader. Total EPO in samples was calculated from a standard curve of recombinant human EPO in each assay. EPO activity was normalized to total protein concentration (Pierce BCA assay) in supernatants. Background EPO activity was determined from the unsensitized, antigen-challenged control group. Percent inhibition was calculated from the sensitized, antigen-challenged, vehicle-treated control group in each experiment. Ovalbumin-injected animals dosed topically with 0.1% w/v dexamethasone (dex) served as positive control. Groups were compared by ANOVA with Dunnett's or Tukey's post-hoc tests where appropriate with significance assigned at the 95% confidence level.
(§2) The table below summarizes the results.

[2] = tested on: Hartley VAF outbred guinea pigs; experiment: as above; format: in vivo; design: key: +: a 0.01% bid dose was statistically equivalent to dexamethasone with respect to reduction of EPO activity; −: the compound was statistically inferior to dexamethasone and not different than vehicle; details: 0.01% bid topical, 1 hour prior to and 8 hours after ovalbumin challenge; reduction of conjunctival EPO activity vs dexamethasone
Experimental: as §1, §2

[3] = biological target: T1, human H4 (Homo sapiens, UniProt Q9H3N8); experiment: In vitro histamine receptor cell-based assay (aequorin bioluminescence), H4 antagonism; details: CHO-K1 cells expressing human H4, aequorin and Gα16; histamine at EC80; read-out: H4 Antagonist EC50
T1 construct: host or cells: CHO-K1
In short: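 CHO-K1 cells stably expressing human H4, Gα16 and mitochondrial aequorin, loaded with 5 μM coelenterazine-h, preincubated 15 min at room temperature with compound, then challenged with histamine at EC80.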

[4] = biological target: T2, human H1 (Homo sapiens, UniProt P35367); experiment: In vitro histamine receptor cell-based assay (aequorin bioluminescence), H1 antagonism; details: CHO-K1 cells expressing human H1 and aequorin; histamine at EC80; read-out: H1 Antagonist EC50
T2 construct: host or cells: CHO-K1
In short: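 Stable CHO-K1 lines expressing human H1 or H4 (H4 with Gα16) plus mitochondrial aequorin, loaded 4 h with 5 μM coelenterazine-h at ~21 °C. Compounds preincubated 15 min, then histamine at EC80 added; bioluminescence decrease (AUC or max–min) expressed as % of positive control (diphenhydramine for H1, JNJ7777120 for H4, 10 μM).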

[5] = tested on: CD-1 mice; experiment: Model of scratching induced by histamine in CD-1 mice (assessment of H4 antagonism); format: in vivo; details: 30 mg/kg oral gavage 30 min before i.d. histamine; bouts counted for 20 minutes; female CD-1 mice
Experimental: Assessment of H4 Antagonism—Model of Scratching Induced by Histamine in CD-1 mice.
Female CD-1 mice (Charles River, Hollister, Calif.), approximately 10 weeks old were housed under controlled conditions (12 h light: 12 h dark, 21° C.) and allowed ad libitum access to food (Purina LabDiet 5P14) and water. Animals were deprived of access to food and water for 1 hour during the experimental itch protocol. All studies were performed under the guidelines of the Institutional Animal Care and Use Committee of Kalypsys, Inc.
At least 24 hours prior to study initiation, the hair on the rostral dorsum of the animal was clipped to clear a location for intradermal (i.d.) injection of pruritogen (histamine, dissolved in Dulbecco's PBS [pH 7.4] at a concentration of 10 μmol per 20 μL). Animals were dosed by oral gavage with vehicle (9/0.5/0.5/90 PEG-400/Tween-80/PVP-K30/1% carboxymethylcellulose in water) or test compounds (formulated as suspensions in vehicle) at 30 mg/kg in 200 μL by means of a 20 gauge 1.5″ feeding needle affixed to a 1 mL syringe. There were 8 mice per study group. Thirty minutes after oral dosing, animals were injected i.d. with 20 μL of histamine. Immediately afterward animals were placed into individual sections of a standard acrylic cage for observation, which was recorded digitally for a 20 minute period by video cameras (Panasonic SDR-S70/PC) for later review.
Quantitation of induced itch was measured as described previously (Bell, J. K. et al., British Journal of Pharmacology, 142:374-380, 2004) by counting the number of scratching bouts per animal in the 20 minute period after i.d. injection. A scratching bout was defined as three rapid scratch movements of the hind paw in the area of the injection site. Activity with the fore paws was deemed to be grooming and not scratching, and thus was not counted. All data were analyzed using GraphPad Prism (San Diego, Calif.) software, and reported as mean percentage reduction in scratching bouts versus vehicle control. The significance of antagonist effect on agonist-induced itching was analyzed using the nonparametric Mann-Whitney test with P values <0.05 being designated as statistically significant.
Data reported as NT refers to the example having been not tested. It is expected that these compounds when tested will be active and will have utility similar to those that have been tested. In Table 2 below, entries with superscript “1” are statistically significant according to the criteria outlined in the protocol above. Entries with superscript “2” are examples that have been tested on two separate days and the results reported below are the mean of the two experiments

T2 sequence (P35367 whole entry): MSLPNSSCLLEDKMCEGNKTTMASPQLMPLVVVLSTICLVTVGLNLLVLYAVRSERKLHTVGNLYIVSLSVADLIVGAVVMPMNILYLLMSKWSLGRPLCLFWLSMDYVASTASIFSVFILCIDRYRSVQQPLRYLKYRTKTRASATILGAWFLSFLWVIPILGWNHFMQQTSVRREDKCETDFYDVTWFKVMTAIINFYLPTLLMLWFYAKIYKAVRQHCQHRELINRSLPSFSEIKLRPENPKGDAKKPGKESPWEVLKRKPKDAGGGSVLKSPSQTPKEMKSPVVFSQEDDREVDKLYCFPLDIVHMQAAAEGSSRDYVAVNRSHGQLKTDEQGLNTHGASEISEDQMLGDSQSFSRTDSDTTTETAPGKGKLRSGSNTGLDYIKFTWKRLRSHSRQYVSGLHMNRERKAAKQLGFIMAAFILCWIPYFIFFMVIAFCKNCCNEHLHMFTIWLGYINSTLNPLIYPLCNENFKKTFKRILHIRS
T1 sequence (Q9H3N8 whole entry): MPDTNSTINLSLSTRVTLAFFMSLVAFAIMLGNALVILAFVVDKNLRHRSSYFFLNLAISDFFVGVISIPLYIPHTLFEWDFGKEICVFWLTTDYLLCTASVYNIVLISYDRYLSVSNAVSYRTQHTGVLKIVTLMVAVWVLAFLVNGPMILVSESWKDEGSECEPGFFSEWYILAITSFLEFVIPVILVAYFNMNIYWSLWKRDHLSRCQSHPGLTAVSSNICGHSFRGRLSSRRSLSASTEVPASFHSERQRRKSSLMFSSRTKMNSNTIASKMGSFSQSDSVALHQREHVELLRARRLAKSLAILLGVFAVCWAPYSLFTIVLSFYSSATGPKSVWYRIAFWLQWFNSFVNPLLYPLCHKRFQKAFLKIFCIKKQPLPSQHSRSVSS

SMILES | QD activity [1] | BID activity [2] | EC50 [3] [µM] | EC50 [4] [µM] | Scratching Bouts (% change from vehicle control) [5]
Cl.FC(F)(F)c1ccc2nc(N3CCNCC3)c3nnnn3c2c1 [Example 29, 4-(piperazin-1-yl)-8-(trifluoromethyl)tetrazolo[1,5-a]quinoxaline hydrochloride] | + | + | < 10 | > 10 | 
Clc1ccc2nc(N3CCNCC3)c3nnnn3c2c1 [Example 19, 8-Chloro-4-(piperazin-1-yl)tetrazolo[1,5-a]quinoxaline] | + | + | < 10 | > 10 | 
FC(F)(F)c1ccc2nc(N3CCNCC3)c3nncn3c2c1 [Example 24, 4-(piperazin-1-yl)-8-(trifluoromethyl)-[1,2,4]triazolo[4,3-a]quinoxaline] | + |  | < 10 | > 10 | 
Cc1nc2c3cc(C(F)(F)F)ccc3nc(N3CCN(C)CC3)n2n1 [Example 103, 2-Methyl-5-(4-methylpiperazin-1-yl)-9-(trifluoromethyl)-[1,2,4]triazolo[1,5-c]quinazoline] | + |  | < 10 | > 10 | −37%
CN1CCN(c2nc3ccc(Cl)cc3n3nnnc23)CC1 [Example 20, 8-Chloro-4-(4-methylpiperazin-1-yl)tetrazolo[1,5-a]quinoxaline] |  | − | < 10 | > 10 | −1%
Cc1nc2c3cc(C(F)(F)F)cc(F)c3nc(N3CCN(C)CC3)n2n1.Cl [Example 127, 7-fluoro-2-methyl-5-(4-methylpiperazin-1-yl)-9-(trifluoromethyl)-[1,2,4]triazolo[1,5-c]quinazoline hydrochloride] | + |  | < 10 | > 10 | 
CN1CCN(c2nc3ccc(Cl)cc3c3conc23)CC1 [Example 166, 8-Chloro-4-(4-methylpiperazin-1-yl)isoxazolo[3,4-c]quinoline] | + | + | < 10 | > 10 | 
Cc1nc2c3cc(Cl)ccc3nc(N3CCNCC3)n2n1 [Example 112, 9-Chloro-2-methyl-5-(piperazin-1-yl)-[1,2,4]triazolo[1,5-c]quinazoline] |  |  | < 10 | > 10 | −73^1%
Cc1nc2c3cc(Cl)ccc3nc(N3CCN(C)CC3)n2n1 [Example 113, 9-chloro-2-methyl-5-(4-methylpiperazin-1-yl)-[1,2,4]triazolo[1,5-c]quinazoline] |  | − | < 10 | > 10 | −66^1,2%
CN1CCN(c2nc3ccc(Cl)cc3c3c[nH]nc23)CC1 [Example 152, 8-Chloro-4-(4-methylpiperazin-1-yl)-2H-pyrazolo[3,4-c]quinoline] |  | − | < 10 | > 10 | −13%
Cc1nc2c(N3CCN(C)CC3)nc3ccc(Cl)cc3n2n1 [Example 165, 8-chloro-2-methyl-4-(4-methylpiperazin-1-yl)-[1,2,4]triazolo[1,5-a]quinoxaline] | + | + | < 10 | < 10 | 
FC(F)(F)c1cc2c(cc1Cl)nc(N1CCNCC1)c1nncn12 [Example 45, 7-Chloro-4-(piperazin-1-yl)-8-(trifluoromethyl)-[1,2,4]triazolo[4,3-a]quinoxaline] | + |  | < 10 | > 10 | 
Cc1nc2c3c(F)c(C(F)(F)F)ccc3nc(N3CCN(C)CC3)n2n1.Cl [Example 126, 10-fluoro-2-methyl-5-(4-methylpiperazin-1-yl)-9-(trifluoromethyl)-[1,2,4]triazolo[1,5-c]quinazoline hydrochloride] | + |  | < 10 | > 10 | 
